Measured values reported in patent US12098154B2, “Inhibitors of cyclin-dependent kinases” (Dana-Farber Cancer Institute, Inc., priority 2015, dated 2024).
Read-outs that look alike come from different tables or passages of the source.

Key:
CDK2/CycA = CDK2/CycA (Homo sapiens, UniProt P24941); experiment: CDK2/CycA inhibition (Tables A1, A2); assay type: biochemical
Jurkat cells [1] = experiment: Jurkat proliferation assay (CellTiter-Glo); assay type: cell-based; conditions: for IC50: Homo sapiens, Jurkat
Procedure: (§1) Jurkat cells were seeded at a density of 25,000 cells/well in 96-well plates. Cells were then treated with the indicated compounds in a 10-pt dose escalation format from 1 nM to 10 μM or DMSO control for 72 hours. After 72 hours, the cells were assayed using CellTiter-Glo Luminescent Cell Viability Assay (Promega) to determine cell viability by measuring the amount of ATP present in each sample cell population, which is an indicator of cell metabolic activity. […] All data points were performed in biological triplicate. Error bars are +/−SD.
as §1, with “hrs.” for “hours.”, “hrs,” for “hours, the”

CDK7/CycH = CDK7/CycH (Homo sapiens, UniProt P50613); experiment: CDK7/CycH inhibition (Tables A1, A2); assay type: biochemical
CDK7/CycH, sequence (P50613 whole entry): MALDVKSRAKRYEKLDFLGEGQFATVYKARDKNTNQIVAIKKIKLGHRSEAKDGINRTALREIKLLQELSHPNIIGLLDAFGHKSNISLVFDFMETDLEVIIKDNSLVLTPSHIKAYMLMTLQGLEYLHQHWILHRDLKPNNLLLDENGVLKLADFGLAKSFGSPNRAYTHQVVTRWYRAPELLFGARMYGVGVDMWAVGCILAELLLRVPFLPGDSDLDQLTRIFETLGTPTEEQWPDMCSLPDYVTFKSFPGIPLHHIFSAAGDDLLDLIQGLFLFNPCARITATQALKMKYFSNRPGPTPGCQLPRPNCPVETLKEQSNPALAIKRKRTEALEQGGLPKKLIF
CDK7/CycH, sequence (P51946 whole entry partner): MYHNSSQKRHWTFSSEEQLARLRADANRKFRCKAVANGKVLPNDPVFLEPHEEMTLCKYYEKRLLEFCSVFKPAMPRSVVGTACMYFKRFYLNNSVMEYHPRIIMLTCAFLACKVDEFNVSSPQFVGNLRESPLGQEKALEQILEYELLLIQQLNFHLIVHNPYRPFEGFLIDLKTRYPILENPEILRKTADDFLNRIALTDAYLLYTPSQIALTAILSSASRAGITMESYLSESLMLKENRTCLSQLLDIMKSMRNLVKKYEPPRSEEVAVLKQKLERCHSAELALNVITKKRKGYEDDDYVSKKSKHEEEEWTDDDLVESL

CDK9/CycT = CDK9/CycT (Homo sapiens, UniProt P50750); experiment: CDK9/CycT inhibition (Tables A1, A2); assay type: biochemical
CDK9/CycT, sequence (P50750 whole entry): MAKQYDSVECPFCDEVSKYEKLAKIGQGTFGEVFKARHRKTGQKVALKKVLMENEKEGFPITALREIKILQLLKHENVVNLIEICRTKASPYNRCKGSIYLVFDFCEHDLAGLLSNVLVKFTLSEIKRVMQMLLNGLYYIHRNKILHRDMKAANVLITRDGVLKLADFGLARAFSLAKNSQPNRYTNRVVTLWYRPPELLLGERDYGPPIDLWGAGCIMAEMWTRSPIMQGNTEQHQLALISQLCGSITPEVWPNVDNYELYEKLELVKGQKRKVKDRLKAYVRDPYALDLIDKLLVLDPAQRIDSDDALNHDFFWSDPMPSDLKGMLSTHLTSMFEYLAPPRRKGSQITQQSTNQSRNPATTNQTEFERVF
CDK9/CycT, sequence (O60563 whole entry partner): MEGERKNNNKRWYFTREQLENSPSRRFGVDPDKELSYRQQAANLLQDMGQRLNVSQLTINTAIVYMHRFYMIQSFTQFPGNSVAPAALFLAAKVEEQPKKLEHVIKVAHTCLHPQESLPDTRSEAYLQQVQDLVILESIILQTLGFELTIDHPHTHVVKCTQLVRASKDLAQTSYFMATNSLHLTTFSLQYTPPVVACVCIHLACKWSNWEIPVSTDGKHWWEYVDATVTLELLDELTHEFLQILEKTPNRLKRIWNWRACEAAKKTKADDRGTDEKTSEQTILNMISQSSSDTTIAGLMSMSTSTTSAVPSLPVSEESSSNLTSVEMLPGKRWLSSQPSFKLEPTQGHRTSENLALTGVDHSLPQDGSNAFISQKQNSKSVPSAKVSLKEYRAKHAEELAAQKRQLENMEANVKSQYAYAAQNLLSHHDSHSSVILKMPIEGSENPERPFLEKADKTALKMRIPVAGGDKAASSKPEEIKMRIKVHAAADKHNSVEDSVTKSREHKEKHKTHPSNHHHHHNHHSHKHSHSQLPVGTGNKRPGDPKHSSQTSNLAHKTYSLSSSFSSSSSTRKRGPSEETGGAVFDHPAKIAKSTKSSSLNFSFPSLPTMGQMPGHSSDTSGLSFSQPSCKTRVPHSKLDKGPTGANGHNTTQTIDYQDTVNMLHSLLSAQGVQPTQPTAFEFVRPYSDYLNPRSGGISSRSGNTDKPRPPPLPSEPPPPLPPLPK

CDK12 = target: T1, CDK12 (Homo sapiens, UniProt Q9NYV4); experiment: Pulldown assay with biotin-THZ1, blot for Cyclin K; assay type: cell-based; conditions: Jurkat cells treated with 1 uM or 200 nM
T1 construct: endogenous in cells; host or cells: Jurkat
T1 sequence (Q9NYV4 whole entry): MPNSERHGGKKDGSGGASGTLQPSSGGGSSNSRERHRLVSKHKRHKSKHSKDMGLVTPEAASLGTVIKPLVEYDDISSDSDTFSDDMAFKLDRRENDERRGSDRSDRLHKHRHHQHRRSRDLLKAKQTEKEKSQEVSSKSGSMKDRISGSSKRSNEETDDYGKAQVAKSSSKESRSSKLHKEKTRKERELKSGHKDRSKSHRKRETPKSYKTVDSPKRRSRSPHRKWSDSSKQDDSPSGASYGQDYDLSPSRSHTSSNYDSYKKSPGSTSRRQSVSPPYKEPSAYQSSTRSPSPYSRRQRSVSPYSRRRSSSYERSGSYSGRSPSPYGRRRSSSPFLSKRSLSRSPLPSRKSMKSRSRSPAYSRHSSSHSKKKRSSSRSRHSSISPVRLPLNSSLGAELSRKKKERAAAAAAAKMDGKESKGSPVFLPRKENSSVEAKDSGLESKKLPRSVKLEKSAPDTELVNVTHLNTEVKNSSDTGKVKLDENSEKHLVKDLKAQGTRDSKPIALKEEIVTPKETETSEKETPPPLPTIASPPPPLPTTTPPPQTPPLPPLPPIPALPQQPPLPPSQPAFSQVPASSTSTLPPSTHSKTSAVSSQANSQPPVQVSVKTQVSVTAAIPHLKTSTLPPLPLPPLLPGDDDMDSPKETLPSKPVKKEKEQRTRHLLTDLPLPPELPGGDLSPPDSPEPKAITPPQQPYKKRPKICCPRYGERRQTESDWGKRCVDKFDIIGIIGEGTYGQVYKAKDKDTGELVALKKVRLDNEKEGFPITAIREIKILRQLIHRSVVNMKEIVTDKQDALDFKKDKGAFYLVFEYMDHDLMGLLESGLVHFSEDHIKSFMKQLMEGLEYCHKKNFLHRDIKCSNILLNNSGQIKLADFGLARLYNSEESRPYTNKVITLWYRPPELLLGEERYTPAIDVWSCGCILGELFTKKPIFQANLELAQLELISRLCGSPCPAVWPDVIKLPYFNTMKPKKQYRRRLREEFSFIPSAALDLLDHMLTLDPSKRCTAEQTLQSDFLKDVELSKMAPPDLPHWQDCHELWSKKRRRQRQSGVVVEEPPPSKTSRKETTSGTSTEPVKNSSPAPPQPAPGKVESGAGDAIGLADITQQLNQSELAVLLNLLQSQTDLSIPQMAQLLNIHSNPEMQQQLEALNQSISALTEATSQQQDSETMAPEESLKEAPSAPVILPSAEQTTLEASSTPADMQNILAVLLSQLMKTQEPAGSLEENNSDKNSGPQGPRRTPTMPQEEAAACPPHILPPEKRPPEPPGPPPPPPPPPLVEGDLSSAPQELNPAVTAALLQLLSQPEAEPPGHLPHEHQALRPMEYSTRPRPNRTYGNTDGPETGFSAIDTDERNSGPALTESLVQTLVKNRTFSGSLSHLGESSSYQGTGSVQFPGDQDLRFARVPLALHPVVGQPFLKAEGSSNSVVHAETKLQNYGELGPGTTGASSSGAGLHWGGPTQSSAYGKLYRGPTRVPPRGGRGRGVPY
T1 sequence (O75909 whole entry partner): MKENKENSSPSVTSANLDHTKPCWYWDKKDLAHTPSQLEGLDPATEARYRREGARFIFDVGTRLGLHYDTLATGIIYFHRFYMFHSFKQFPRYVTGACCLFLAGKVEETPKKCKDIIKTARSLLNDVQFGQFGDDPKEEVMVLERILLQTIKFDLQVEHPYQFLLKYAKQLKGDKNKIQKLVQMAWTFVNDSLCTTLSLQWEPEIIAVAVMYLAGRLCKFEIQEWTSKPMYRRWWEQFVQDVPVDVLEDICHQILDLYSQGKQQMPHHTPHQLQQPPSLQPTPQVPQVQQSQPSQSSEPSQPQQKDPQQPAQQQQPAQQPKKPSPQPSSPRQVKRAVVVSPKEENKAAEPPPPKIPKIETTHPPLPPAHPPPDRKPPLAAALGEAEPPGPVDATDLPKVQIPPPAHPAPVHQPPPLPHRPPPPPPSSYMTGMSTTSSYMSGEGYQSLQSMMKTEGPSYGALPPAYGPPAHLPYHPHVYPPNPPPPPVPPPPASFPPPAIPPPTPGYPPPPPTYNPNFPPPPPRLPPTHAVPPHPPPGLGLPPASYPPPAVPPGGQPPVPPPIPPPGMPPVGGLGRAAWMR
Procedure: Specifically. […] Decreased pulldown of cyclin K with biotin-THZ1 indicated a loss of CDK12 binding.
(§2) 6 hours after treatment, cells were washed and harvested by resuspending in lysis buffer (50 mM Hepes pH 7.4, 150 mM NaCl, 1% NP-40, 5 mM EDTA, protease and phosphatase inhibitors) and lysing on ice 30 minutes. Lysates were cleared by centrifugation at 15,000 rpm 30 minutes. Biotin-labeled THZ1 was added to 1 uM to lysates and rotated at 4° C. overnight. Streptavidin-agarose beads were washed and 30 uL slurry was added to each lysate and rotated for 1 hour at 4° C. Beads were washed 5 times with lysis buffer and 50 uL 2×LDS buffer was added to each sample. Samples were boiled and equal volume of protein was loaded onto gel. Gel was transferred to nitrocellulose and blotted for Cyclin K and Cyclin H.

[2] = tested on: Pol II Ser2 phosphorylation and MCL1 levels; experiment: Washout expression assay (western blot); assay type: cell-based; conditions: Jurkat cells, 1 uM, 4 hours, 6 hours
Procedure: 4 hours after treatment, cells were either not treated or washed three times with RPMI media to remove all compound. Cells were replated and allowed to grow for 6 hours. Cells were harvested, washed 3 times with PBS and resuspended in RIPA buffer (25 mM Tris-HCl (pH 7.6), 150 mM NaCl, 1% NP-40, 1% sodium deoxycholate, 0.1% SDS). Equal amount of protein was loaded onto gel and blotted for Pol II Ser2 (Millipore 04-1571), total pol II (Santa Cruz 17798), Tubulin (Cell Signaling 11H10) or MCL1 (Cell Signaling 4572S)

Jurkat cells [3] = experiment: Growth assay with and without washout; assay type: cell-based; conditions: 1 uM, 4 hours treatment, assayed 68 hours after washout
Procedure: Cells were treated with each compound for 4 hours and either no washout (no washout) or had compound removed by washing cells with media (washout). Sixty-eight (68) hours after washout, the cells were assayed for antiproliferative effects. Error bars indicate +/−SD.
4 hours after treatment, cells were either not treated or washed three times with RPMI media to remove all compound. Cells were replated and allowed to grow for 68 hours. Cells were assayed using celltiter glo (Promega) to determine cell viability by measuring the amount of ATP present, which is an indicator of cell metabolic activity. Results are graphed as luminescent values (FIG. 1).

CDK12 and CDK13 = experiment: KiNativ kinome profiling; assay type: binding; conditions: 1 μM, 6 hrs
Procedure: Jurkat cells were seeded at a density of 100 million cells/50 mL. Cells were treated with E9 (1 μM) or DMSO control for 6 hrs. Cells were washed twice with cold phosphate-buffered saline (PBS). PBS-washed cell pellets were flash frozen and subjected to KiNativt™ kinome profiling at ActivX Biosciences, Inc. according to their specifications using their desthiobiotin-ATP probe. Peptide sequences shown in Table A4 belong to the indicated kinase(s) and were detected by mass spectrometry (MS) under DMSO control conditions following enrichment for biotinylated proteins by streptavidin pulldown and subsequent proteolysis. Kinases labeled by the reactive desthiobiotin-ATP probe indicate that the kinase was accessible to desthiobiotin-ATP probe binding. Results shown are normalized to these paired DMSO controls and numbers represent the percentage (compared to DMSO control) of MS signal lost for sequences of an indicated kinase, eg—numbers approaching 100% indicate that test compound effectively out-competed the desthiobiotin ATP probe for binding to the kinase, resulting in decreased labeling and enrichment for peptides representing this kinase.

CDK7 = target: T2, CDK7 (Homo sapiens, UniProt P50613); experiment: Pulldown assay with biotin-THZ1, blot for Cyclin H; assay type: cell-based; conditions: Jurkat cells treated with 1 uM or 200 nM
T2 construct: endogenous in cells; host or cells: Jurkat
T2 sequence (P50613 2-346 limits assumed): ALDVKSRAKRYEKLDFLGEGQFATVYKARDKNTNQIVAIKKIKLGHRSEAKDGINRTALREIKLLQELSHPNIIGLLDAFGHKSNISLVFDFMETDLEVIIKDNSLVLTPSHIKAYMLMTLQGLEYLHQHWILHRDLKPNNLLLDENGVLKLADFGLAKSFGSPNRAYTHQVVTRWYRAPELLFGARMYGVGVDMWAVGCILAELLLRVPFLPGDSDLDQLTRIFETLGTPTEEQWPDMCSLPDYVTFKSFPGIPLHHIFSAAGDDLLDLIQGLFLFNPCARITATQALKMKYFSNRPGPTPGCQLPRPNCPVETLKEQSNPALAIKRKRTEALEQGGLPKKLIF
T2 sequence (P51946 whole entry partner): as the sequence (P51946 whole entry partner) above
T2 sequence (P51948 whole entry partner): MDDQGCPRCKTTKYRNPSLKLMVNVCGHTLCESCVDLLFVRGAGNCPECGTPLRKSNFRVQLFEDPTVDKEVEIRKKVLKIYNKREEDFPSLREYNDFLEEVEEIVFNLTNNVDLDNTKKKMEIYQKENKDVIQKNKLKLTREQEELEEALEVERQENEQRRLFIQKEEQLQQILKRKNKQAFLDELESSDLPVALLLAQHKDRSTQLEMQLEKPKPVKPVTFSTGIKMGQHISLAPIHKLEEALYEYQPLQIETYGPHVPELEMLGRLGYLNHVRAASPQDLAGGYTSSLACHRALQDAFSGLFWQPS
Procedure: Compounds E9 and E17 were able to block pulldown of cyclin K at 1 μM and 200 nM. Specifically. […] Decreased pulldown of cyclin K with biotin-THZ1 indicated a loss of CDK12 binding.
as §2

CDK12/CCNK complex = CDK12/CCNK complex (Homo sapiens, UniProt Q9NYV4); experiment: Electrospray ionization mass spectra of CDK12/CCNK complex after treatment; assay type: binding; conditions: 1 hr at room temperature
CDK12/CCNK complex, sequence (Q9NYV4 whole entry): as the sequence (Q9NYV4 whole entry) above
CDK12/CCNK complex, sequence (O75909 whole entry partner): as the sequence (O75909 whole entry partner) above
Description: The zero-charge mass spectra in the upper panel and inset is the result of deconvolution of the raw mass spectrum in the lower panel. A. CCNK. C, phosphorylated CDK12. D, CDK12.
The zero-charge mass spectra in the upper panel and inset is the result of deconvolution of the raw mass spectrum in the lower panel. A, CCNK. B, phosphorylated and E-9 labeled CDK12. C, E-9 labeled CDK12.

[4] = tested on: TAL1, RUNX1, and MYB mRNA transcripts; experiment: Jurkat gene expression analysis (qPCR); assay type: cell-based; conditions: 1 μM, 6 hrs, Jurkat cells
Procedure: Jurkat cells were seeded at a density of 5 million cells/10 mL. Cells were then treated with 200 nM or 1 μM of the indicated compounds or with DMSO control for 6 hours. Total RNA was extracted from 5 million cells using the RNeasy Plus Mini Kit (Qiagen) with a gDNA eliminator mini column to remove genomic DNA. mRNA was reverse transcribed into cDNA using the SuperScript III First-Strand Synthesis Kit (Life Technologies) using an oligo-dT primer to capture polyadenylated mRNAs. Quantitative PCR (qPCR) using transcript-specific Taqman probes (Applied Biosystems) was used to assess the effect of compound treatment on the expression of the indicated mRNA transcripts. All experiments shown were performed in biological triplicate. Each individual biological sample was qPCR-amplified in technical duplicate. Error bars are +/−SD. Expression data from drug treatments were normalized to GAPDH probe.
Jurkat cells were seeded at a density of 5 million cells/10 mL. Cells were then treated with 200 nM or 1 μM of the indicated compounds or with DMSO control for 6 hrs. […] Quantitative PCR (qPCR) using transcript-specific Taqman probes (Applied Biosystems) was used to assess the effect of compound treatment on the expression of the indicated mRNA transcripts. […]

[5] = 72 h, CellTiter-Glo, read-out: IC50 on Jurkat T-ALL cell proliferation

C=CC(=O)Nc1cccc(Nc2nc(N3CCCCC3CCO)nc3c(CC)cnn23)c1 (stereo not shown) [SB1-E-18, N-(3-(8-Ethyl-2-(2-(2-hydroxyethyl)piperidin-1-yl)pyrazolo[1,5-a][1,3,5]triazin-4-ylamino)phenyl)acrylamide]
IC50 (CDK2/CycA): 15 nM | Mode of inhibition of Jurkat T-ALL cell proliferation (Jurkat cells [1]): irreversiably inhibit | IC50 (Jurkat cells [1]; read-out: Jurkat IC50): 19.2 nM | IC50 (CDK7/CycH): 461 nM | IC50 (CDK9/CycT): 41.8 nM

C=CC(=O)Nc1ccc(C(=O)Nc2cccc(Nc3nc(N4CCCCC4CCO)nc4c3ncn4C(C)C)c2)cc1 (stereo not shown) [THZ-4-124-1, 4-Acrylamido-N-(3-((2-(2-(2-hydroxyethyl)piperidin-1-yl)-9-isopropyl-9H-purin-6-yl)amino)phenyl)benzamide]
IC50 (CDK2/CycA): 976 nM | IC50 (Jurkat cells [1]; read-out: Jurkat IC50): 117 nM | IC50 (CDK7/CycH): 122 nM | IC50 (CDK9/CycT): 373 nM

C=CC(=O)Nc1cccc(Nc2cc(N3CCCCC3CCO)nc3c(CC)cnn23)c1 (stereo not shown) [E-9(SB1-E-23), N-(3-(3-Ethyl-5-(2-(2-hydroxyethyl)piperidin-1-yl)pyrazolo[1,5-a]pyrimidin-7-ylamino)phenyl)acrylamide]
Pulldown of Cyclin K by biotin-THZ1 (CDK12 binding) (CDK12): blocks the pulldown of Cyclin K | Effect on Polymerase II Serine 2 phosphorylation and MCL1 levels with and without washout [2]: irreversible effect | Inhibition of Jurkat cell viability with and without washout (Jurkat cells [3]): irreversibly inhibit Jurkat cell viability | Kinases bound in Jurkat cells (competition with desthiobiotin-ATP probe) (CDK12 and CDK13): binds predominantly CDK12 and CDK13 | IC50 (CDK2/CycA): 250 nM | Mode of inhibition of Jurkat T-ALL cell proliferation (Jurkat cells [1]): irreversiably inhibit | IC50 (Jurkat cells [1]; 72 h, read-out: IC50 on Jurkat T-ALL cell proliferation): < 100 nM | IC50 (Jurkat cells [1]; read-out: Jurkat IC50): 78.8 nM | Pulldown of Cyclin H by biotin-THZ1 (CDK7 binding) (CDK7): not able to bind to CDK7 | Labeling of CDK12 (mass shift) (CDK12/CCNK complex): Only the masses of CDK12 proteins shift after treatment | IC50 (CDK7/CycH): 1090 nM | IC50 (CDK9/CycT): 21.6 nM

C=CC(=O)Nc1cccc(Nc2cc(N[C@H]3CC[C@H](N(C)C)CC3)nc3c(C(C)C)cnn23)c1 [SB1-E-26, N-(3-(5-((1r,4r)-4-(Dimethylamino)cyclohexylamino)-3-isopropylpyrazolo[1,5-a]pyrimidin-7-ylamino)phenyl)acrylamide]
IC50 (CDK2/CycA): 939 nM | Downregulation of TAL1, RUNX1, MYB transcripts [4]: potently reduce | IC50 (Jurkat cells [1]; [5]): > 300 nM | IC50 (Jurkat cells [1]; read-out: Jurkat IC50): 518 nM | IC50 (CDK7/CycH): 1090 nM | IC50 (CDK9/CycT): 429 nM

CCc1cnn2c(Nc3cccc(NC(=O)c4ccc(NC(=O)/C=C/CN(C)C)cc4)c3)cc(N3CCCC(N)C3)nc12 (stereo not shown) [THZ-4-128-1, (E)-N-(3-((5-(3-Aminopiperidin-1-yl)-3-ethylpyrazolo[1,5-a]pyrimidin-7-yl)amino)phenyl)-4-(4-(dimethylamino)but-2-enamido)benzamide]
IC50 (CDK2/CycA): 17100 nM | IC50 (Jurkat cells [1]; read-out: Jurkat IC50): 1040 nM | IC50 (CDK7/CycH): 46.8 nM | IC50 (CDK9/CycT): 73.4 nM

C=CC(=O)Nc1cccc(Nc2cc(N[C@H]3CC[C@H](N(C)C)CC3)nc3c(CC)cnn23)c1 [SB1-E-21, N-(3-(5-((1r,4r)-4-(Dimethylamino)cyclohexylamino)-3-ethylpyrazolo[1,5-a]pyrimidin-7-ylamino)phenyl)acrylamide]
IC50 (CDK2/CycA): 1220 nM | Downregulation of TAL1, RUNX1, MYB transcripts [4]: potently reduce | IC50 (Jurkat cells [1]; [5]): > 300 nM | IC50 (Jurkat cells [1]; read-out: Jurkat IC50): 318 nM | IC50 (CDK7/CycH): 1210 nM | IC50 (CDK9/CycT): 226 nM
